The values that follow come from US10472352B2, “Rac inhibitors” (Geneyus LLC, priority 2017, dated 2019).

Experiment [1] has as its system MCF-7 human breast cancer cell line. As to the kind of experiment: Cell Viability Assay (MCF7), PrestoBlue. The format is cell-based. To be noted: MCF7, 72 h, MCF-7 cells, three days after drug treatment. On the procedure:
In order to determine a compound's effect on cell viability, PrestoBlue assays were performed as previously described by Kuhn et al. (2013) with modifications. MCF-7 human breast cancer and IGR-1 human melanoma cell lines were seeded into 96-well plates 24 hours prior to addition of drug. Cells were treated with 0 to 200 μM (11 concentrations) of compound solubilized in DMSO, adjusting the final concentration of DMSO to 1% in the well. Three days after drug treatment, cell viability was measured by adding PrestoBlue (Life Technologies Ltd.; cat. No. A13262) reagent directly to wells containing media/drug to reach a final concentration of 10%. PrestoBlue is a modified molecule of the common Alamar Blue probe used to determine viability based on the ability of a cell to metabolize a nonfluorescent compound (resazurin) to a florescent molecule (resorufin). Following a 1 hour incubation period, total well fluorescence was measured using the microplate reader M1000 pro (Tecan) with excitation 560-5 nm and emission 590-5 nm. […] The percentage of living cells was then computed by comparison with control wells. Kuhn, Jonas et al., Assay and Drug Development Technologies, March 2013, Label-Free Cytotoxicity Screening Assay by Digital Holographic Microscopy.

Experiment [2] concerns HUVECs. As to the kind of experiment: HUVEC Tube Formation Assay. The format is cell-based. Conditions: doses above 6.25 μM, 8 h, Matrigel. How it is done: The endothelial cell tube formation assay is an in vitro assay that is widely accepted to accurately reflect number of terminal stages of the angiogenic process such as attachment, migration and differentiation into tubular structures. In this model, endothelial cells are cultured on a monolayer of reconstituted basement membrane components (Matrigel) and form, in a few hours, capillary-like structure. Therefore, this system is a useful and powerful tool for rapidly screening anti-angiogenic agents by monitoring inhibition of endothelial cells morphogenesis on extracellular matrix.
HUVECs (5×10^3) were seeded on top of Matrigel in a 24-well plate. The cells were treated either with DMSO or different concentrations of the Rac1 inhibitor 0032253 (5, 6.25, 10, 12.5 μM) for 8 h in triplicate. The plates were scanned by LICOR Odyssey Imaging system.

Experiment [3] has as its target His-Rac1 / GST-PBD (PAK Binding Domain) (Homo sapiens, UniProt P63000). As to the kind of experiment: Rac Activation AlphaScreen Assay (Rac1 AS). Conditions: 500 nM GTPγS, 37° C., 1 hour; 'positive' = signal generated was higher than the positive control. It is filed as biochemical. On the procedure:
AlphaScreen® assays were performed in 96-well microplates in a final reaction volume of 60 μl. Recombinant His-Rac1, recombinant GST-PBD (PAK Binding Domain), donor and acceptor beads (PerkinElmer), and inhibitors were incubated in exchange buffer (20 mM Tris pH 7.5, 50 mM NaCl, 1 mM MgCl2, 1 mM EDTA, 500 nM GTPγS (guanosine 5′-[γ-thio]triphosphate)) at 37° C. Readings were performed on a Tecan M1000 pro microplate reader after 1 hour.

Experiment [4] relates to HUVECs. As to the kind of experiment: Cell Migration Assay (Boyden chamber). It is filed as cell-based. To be noted: 5 uM. How it is done:
An essential characteristic of malignant cells is their ability to migrate, invade host tissues and to produce metastases. In order to evaluate the capacity of one compound to affect the ability of tumoral cells to migrate, migration assays were performed using HUVEC cells.
HUVECs (2.5×10^4) were seeded onto uncoated filters in a 24-well transwell Boyden chamber ([…]; Costar) and allowed to migrate in the presence and absence of different doses of the Rac1 inhibitor 0032253 (5, 6.25, 10, 12.5, 20, 25 μM). The cells that migrated to the underside of the filter were stained with crystal violet and counted under the bright field microscopy.

Experiment [5] concerns WM1158 cells. As to the kind of experiment: Western Blot Analysis of phosphorylated AKT, MEK1/2, ERK1/2. Conditions: increasing concentrations, two hours, vs DMSO control. It is filed as cell-based. An excerpt:
Western blot analysis is used to identify specific proteins from a complex mixture of proteins extracted from cells. Equal amount of protein is run on the SDS-PAGE gel and after separating the protein mixture, it is transferred to a membrane. The transferred protein is then probed with a combination of antibodies: one antibody specific to the protein of interest (primary antibody) and another antibody specific to the host species of the primary antibody (secondary antibody). The secondary antibody is complexed with an enzyme, which when combined with an appropriate substrate, will produce a detectable signal.
WM1158 cells were treated with increasing concentrations of 0032253 for two hours. SDS-PAGE was conducted on cell lysates and Western Blot analysis was conducted on samples for total and phosphorylated AKT, MEK1/2, and ERK1/2.
On the technique in general: A western blot detects proteins with antibodies after separation by electrophoresis.

For experiment [6], the system named is HUVECs. Put plainly: Cellular Proliferation Assay. It is filed as cell-based. Conditions: 25 uM, cells counted day 0 through day 4. On the procedure: 25,000 cells were seeded in 6-well plates. The next day, vehicle (DMSO) or 25 μM 0032253 was added to cells (Day 0). Cells were counted on days 0 through day 4 using a hemocytometer.
For experiment [7], the target named is T1, Rac1 protein (Homo sapiens, UniProt P63000).
T1 construct: purchased Cytoskeleton Inc. RC01
Put plainly: Fluorescence Polarization Assay (Rac1 FP). The format is binding. Conditions: 125 nM his-tagged Rac1, 12.5 nM Bodipy-TR GTPγS, 30 minutes at 37° C. On the procedure: Direct binding of Rac1 compound inhibitors to Rac1 protein was performed using fluorescence polarization (FP). Briefly, Rac1 inhibitors were initially dissolved in DMSO and then serial drug dilutions in exchange buffer (20 mM Tris pH 7.5, 50 mM NaCl, 1 mM MgCl, 1 mM EDTA) were prepared in a flat black 96-well half-area plate (Greiner). Recombinant his-tagged Rac1 protein (Cytoskeleton Inc. Cat. # RC01) was added to the inhibitors at a final concentration of 125 nM along with 12.5 nM Bodipy-TR GTPγS (Life Technologies Inc. Cat. # G35780) in exchange buffer and incubated for 30 minutes at 37° C. in exchange buffer. After 30 minutes of incubation. FP was measured on the M1000 Pro (Tecan) fluorescent plate reader with 590 nm±5 nm excitation and 625 nm±5 nm emission spectra settings.

SMILES strings stand for the structures.

The IC50 is the midpoint of a concentration-inhibition curve. Read a low IC50 as greater potency. `FC(F)(F)c1ccc2c(SCCCCCCn3cc(CN4CCOCC4)nn3)ccnc2c1` (racemic) [Compound 0032253, 4-({6-[4-(morpholin-4-ylmethyl)-1H-1,2,3-triazol-1-yl]hexyl}sulfanyl)-7-(trifluoromethyl)quinoline] returned an IC50 in experiment [1] of 4.38 µM. In experiment [2], the HUVEC tube formation result was “significantly reduce the ability of HUVECs to form tube like structures”. Moreover, in experiment [3], the “Rac1 AS IC50(uM)” value is given as “positive”. In addition, the “HUVEC migration through a Boyden Chamber” value in experiment [4] is “impairs the ability of HUVECs to migrate through a Boyden Chamber”. Further, in experiment [5], the “expression of phosphorylated AKT” value is given as “reduced as compared to DMSO control”, the “expression of phosphorylated ERK1/2” value is “reduced as compared to DMSO control” and the “expression of phosphorylated MEK1/2” value is on record as “reduced as compared to DMSO control”. Moreover, the HUVEC proliferation result in experiment [6] is given as “completely inhibits the ability of HUVECs to proliferate”. In experiment [7], this compound yielded a half-inhibitory concentration (IC50) of 3.42 µM.
